Measured values: publication PMC9721423, “Novel benzo chromene derivatives: design, synthesis, molecular docking, cell cycle arrest, and apoptosis induction in human acute myeloid leukemia HL-60 cells” (Journal of Enzyme Inhibition and Medicinal Chemistry, 2022)
Read-outs that look alike come from different tables or passages of the source.

Columns and labels:
Assay in all cases: cells
Set-up in all cases: species or system NCI-60 human tumour cell lines; NCI-60 five-dose growth inhibition screen, sulforhodamine B protein stain
RPMI-8226 = details: Homo sapiens, RPMI-8226, 48 h
Procedure: (§1) All the newly synthesised 28 compounds were selected for single-dose testing. NCI60 single-dose testing is performed in all 60 cell lines according to the reported assay (National Cancer Institute, https://dtp.cancer.gov/) (National Cancer Institute https://dtp.cancer.gov/discovery_development/nci-60/), compounds were dissolved in DMSO: glycerol […] and are stored in a −70 °C freezer. The prepared compounds were added at single concentration of 1 0^−5 M and the culture was incubated for 48 h. End point determinations were made with a protein binding dye, sulforhodamine B (SRB). The human tumour cell lines were derived from nine different cancer types: leukaemia, melanoma, lung, colon, central nervous system (CNS), ovarian, renal, prostate, and breast cancers. Dose–response curves for these compounds were created by plotting the percentage growth (PGs or % growth) against log10 of the corresponding concentration for every cell line. Three response parameters, GI50 (Median Growth Inhibitory Concentration), TGI (Total Growth Inhibitory Concentration), and LC50 (Median Lethal Concentration) were calculated[54] (National Cancer Institute, https://dtp.cancer.gov/discovery_development/nci-60/) (National Cancer Institute, https://dtp.cancer.gov/)[55] for compounds 5a and 6a. […] Furthermore, the average sensitivity of all cell lines towards the compound is termed as the full panel mean graph midpoints (MG-MID). The ratio obtained by dividing the full panel mean graph midpoints (MG-MID) concentration by the individual subpanel MG-MID concentrations (obtained as the average sensitivity of all cell lines of a particular subpanel towards the test compound) is considered a criterion for the compound selectivity towards the corresponding cell line. Ratios greater than 6 indicate high selectivity while ratios between 3 and 6 refer to moderate selectivity whereas compounds not meeting either of these criteria were rated non-selective[56].

HT29 = details: Homo sapiens, HT-29, 48 h
Procedure: as §1

LOX IMVI = details: Homo sapiens, LOX IMVI, 48 h
Procedure: as §1

A498 = details: Homo sapiens, A498, 48 h
Procedure: as §1

NCI-H322M = details: Homo sapiens, NCI-H322M, 48 h
Procedure: as §1

UACC-62 = details: Homo sapiens, UACC-62, 48 h
Procedure: as §1

SF-268 = details: Homo sapiens, SF-268, 48 h
Procedure: as §1

SK-MEL-2 = details: Homo sapiens, SK-MEL-2, 48 h
Procedure: as §1

SNB-75 = details: Homo sapiens, SNB-75, 48 h
Procedure: as §1

MDA-MB-435 = details: Homo sapiens, MDA-MB-435, 48 h
Procedure: as §1

NCI/ADR-RES = details: Homo sapiens, NCI/ADR-RES, 48 h
Procedure: as §1

CAKI-1 = details: Homo sapiens, CAKI-1, 48 h
Procedure: as §1

NCI-H23 = details: Homo sapiens, NCI-H23, 48 h
Procedure: as §1

U251 = details: Homo sapiens, U-251, 48 h
Procedure: as §1

EKVX = details: Homo sapiens, EKVX, 48 h
Procedure: as §1

HOP-62 = details: Homo sapiens, HOP-62, 48 h
Procedure: as §1

ACHN = details: Homo sapiens, ACHN, 48 h
Procedure: as §1

For N=C(NO)C1=C(N)Oc2c(ccc3ccccc23)C1c1ccccc1 (stereo not shown) [5a, 2-Amino-4-phenyl-N-hydroxy-4H-benzo[h]chromene-3-carboxamidine], the GI50 (RPMI-8226; read-out: GI50 5a) was 380 nM, the GI50 (HT29; read-out: GI50 5a) was 480 nM and the GI50 (LOX IMVI; read-out: GI50 5a) was 540 nM. It also gave a GI50 (A498; read-out: GI50 5a) of 110 nM, a GI50 (NCI-H322M; read-out: GI50 5a) of 660 nM and a GI50 (UACC-62; read-out: GI50 5a) of 50 nM. For the same compound, the GI50 (SF-268; read-out: GI50 5a) was 1320 nM, the GI50 (SK-MEL-2; read-out: GI50 5a) was 28700 nM and the GI50 (SNB-75; read-out: GI50 5a) was 80 nM. For the same compound, the GI50 (MDA-MB-435; read-out: GI50 5a) was 30 nM, the GI50 (NCI/ADR-RES; read-out: GI50 5a) was 60 nM and the GI50 (CAKI-1; read-out: GI50 5a) was 100 nM. It also gave a GI50 (NCI-H23; read-out: GI50 5a) of 470 nM, a GI50 (U251; read-out: GI50 5a) of 380 nM and a GI50 (EKVX; read-out: GI50 5a) of 820 nM. For the same compound, the GI50 (HOP-62; read-out: GI50 5a) was 380 nM and the GI50 (ACHN; read-out: GI50 5a) was 370 nM.
Compound CC(=O)NC1=C(C#N)C(c2ccccc2)c2ccc3ccccc3c2O1 (stereo not shown) [6a, N-(3-Cyano-4-phenyl-4H-benzo[h]chromen-2-yl)acetamide] has a GI50 (RPMI-8226; read-out: GI50 6a) of 410 nM, a GI50 (HT29; read-out: GI50 6a) of 380 nM and a GI50 (LOX IMVI; read-out: GI50 6a) of 600 nM. For the same compound, the GI50 (A498; read-out: GI50 6a) was 200 nM, the GI50 (NCI-H322M; read-out: GI50 6a) was 820 nM and the GI50 (UACC-62; read-out: GI50 6a) was 710 nM. The GI50 (SF-268; read-out: GI50 6a) was 930 nM, the GI50 (SK-MEL-2; read-out: GI50 6a) was 650 nM and the GI50 (SNB-75; read-out: GI50 6a) was 240 nM. It also gave a GI50 (MDA-MB-435; read-out: GI50 6a) of 230 nM, a GI50 (NCI/ADR-RES; read-out: GI50 6a) of 300 nM and a GI50 (CAKI-1; read-out: GI50 6a) of 340 nM. The GI50 (NCI-H23; read-out: GI50 6a) was 730 nM, the GI50 (U251; read-out: GI50 6a) was 490 nM and the GI50 (EKVX; read-out: GI50 6a) was 49900 nM. The GI50 (HOP-62; read-out: GI50 6a) was 690 nM and the GI50 (ACHN; read-out: GI50 6a) was 550 nM.
